From patent publication US10080366B2, “Agent for increasing sugar content in fruit” (RIKEN, priority 2012, dated 2018)
Read-outs that look alike come from different tables or passages of the source.

Columns and labels:
Tomato (fruit: Regina) = settings: 10 g/L, three times at intervals of one week
Excerpt: (§1) To each of the plants shown in Table 16 below, an aqueous potassium hydrogen carbonate solution (5 g/L for lettuce and 10 g/L for the other plants) was applied three times at intervals of one week from one month before the harvest. The plants were harvested three weeks after the start of the application. Untreated plants not treated with the aqueous potassium hydrogen carbonate solution were harvested at the same time. After the harvest, the total amount of amino acids in each sample was determined, and the ratio of the total amount of amino acids in the plant treated with potassium hydrogen carbonate to the total amount of amino acids in the untreated plant was determined.

[1] = test system: Rice plant (grains: Nipponbare); settings: 10 g/L, three times at intervals of one week
Excerpt: as §1

[2] = test system: Lettuce (leaves: Great Lakes); settings: 5 g/L, three times at intervals of one week
Excerpt: as §1

[3] = test system: Grape (fruit: Cabernet Sauvignon); settings: 10 g/L, three times at intervals of one week
Excerpt: as §1

[4] = test system: Wheat (grains: Norin No. 61); settings: 10 g/L, three times at intervals of one week
Excerpt: as §1

[5] = test system: harvested fruit of grape (variety: Barikan); settings: for Sugar content (%) on date of application (Jun. 2): before application
Method: The fruit of grape was maintained in an air-conditioned greenhouse (temperature: 25° C.), and measured for the mass over time. The sugar content of the fruit was measured before the application and 8 days after the application with a sugar content meter. Next, on the assumption that the change in the mass of the fruit was entirely due to the change in water content, calculated values of the amount of decrease in mass and the sugar content on the date (June 2) of the application were determined […] by using the following calculation formula. (Calculated as follows: the sugar content (%) calculated value))=the sugar content (%) before application×the mass (g) on the date of application/the mass (g) on the date of measurement))

Cherry (Sato Nishiki) = settings: 10 g/L, three times at intervals of one week; harvested four weeks later
Method: (§2) To each of the plants shown in Table 15 below, an aqueous potassium hydrogen carbonate solution (10 g/L) was applied three times at intervals of one week about one month before the harvest time. Each of the plants was harvested four weeks later. The degree of the fruit cracking of the fruit was compared with that of untreated fruit, and a fruit cracking-suppression ratio was determined. […] The fruit cracking ratio (%)=the number of pieces of the fruit which underwent fruit cracking/the total number of pieces of the fruit×100 The fruit cracking-suppression ratio (%)=(1−the fruit cracking ratio (%) of a treated group/the fruit cracking ratio (%) of an untreated group)×100

Tomato (Regina) = settings: 10 g/L, three times at intervals of one week
Method: as §2

[6] = test system: Grape (Nagano Purple), Grape (Riesling); settings: 10 g/L, three times at intervals of one week
Method: as §2

[7] = test system: fruit of grape (variety: Steuben); settings: 10 g/L
Method: An agent for increasing a sugar content in a fruit (containing Sorbon T-20 as a spreader/sticker at a final concentration of 200 μL/L) diluted with water to contain potassium hydrogen carbonate at 10 g/L was prepared. The mass of fruit of grape (variety: Steuben) purchased on the market was measured. Then, the prepared agent for increasing a sugar content in a fruit was applied by spraying to the fruit of grape. The fruit of grape was allowed to stand in an air-conditioned greenhouse (temperature: 25° C.), and the mass was measured over time (date of application: Feb. 7, 2011). In addition, as a control, the mass of untreated grape was measured on each of the dates of measurement in the same manner.

[8] = test system: grapes (varieties: Chardonnay, Pinot noir, Merlot, and Cabernet Sauvignon); settings: for sugar content in fruit compared with untreated: 3000 L/ha, entire vines, repeated, all four varieties
Method: To the entire vines including leaves and stems of grapes (varieties: Chardonnay, Pinot noir, Merlot, and Cabernet Sauvignon, 7 years old) in a farm field, an agent (containing Sorbon T-20 as a spreader/sticker at a concentration of 200 μL/L) for increasing a sugar content in a fruit diluted with water to have a potassium hydrogen carbonate concentration of 5 g/L or 10 g/L was applied in a sufficient amount (3000 L/ha (in this case, the amount of potassium hydrogen carbonate was 15 kg/ha for the 5 g/L sample or 30 kg/ha for the 10 g/L sample) each time. The application was repeatedly conducted at intervals of approximately 2 weeks or approximately 1 week as shown in FIGS. 1 to 4. The sugar concentration in the fruit was measured over time. As a control, unapplied vines were provided. The sampling was started before the first application, and a sample was collected before each application, and measured for the sugar content. Three vines were used for each treated group. Note that the expected harvest dates were September 20 for Chardonnay, October 10 for Merlot, October 20 for Cabernet Sauvignon, and September 30 for Pinot noir.
For the measurement of the sugar content, three clusters were taken from each of the treated vines on each of the dates of measurement, and the juice was squeezed and measured for the Brix sugar content (%) with a refractometer for sugar content (manufactured by Atago Co., Ltd.). Likewise, the acidity (%) was also measured with an acidity meter (manufactured by Atago Co., Ltd.).

[9] = 10 g/L, 25° C., mass 100 g on date of application

## O=C([O-])O.[K+] [Potassium hydrogen carbonate, potassium hydrogen carbonate]
Tomato (fruit: Regina)
  Amino acid concentration ratio (treated/untreated): 1.8
[1]
  Amino acid concentration ratio (treated/untreated): 1.2
[2]
  Amino acid concentration ratio (treated/untreated): 1.5
[3]
  Amino acid concentration ratio (treated/untreated): 2.2
[4]
  Amino acid concentration ratio (treated/untreated): 1.2
[5]; 10 g/L
  decrease of mass of fruit in 8 days (June 2 to June 10): 27.3%
[5]; 10 g/L, 25° C.
  Sugar content (%) 8 days later, actually measured value: 24.0%
[5]; 10 g/L, 25° C., listed as potassium hydrogen carbonate
  Sugar content (%) 8 days later, actually measured value: 24%
[5]; [9]
  Mass (g) 6 days later (Jun. 8): 79.4 g
  Mass (g) 8 days later (Jun. 10): 72.7 g
[5]; 10 g/L, calculated from decrease in mass
  Sugar content (%) 8 days later, calculated value: 24.8%
[5]
  Sugar content (%) on date of application (Jun. 2): 18.0%
[5]; listed as potassium hydrogen carbonate
  Sugar content (%) on date of application (Jun. 2): 18%
Cherry (Sato Nishiki)
  Fruit cracking-suppression ratio: 98%
Tomato (Regina)
  Fruit cracking-suppression ratio: 95%
[6]; Nagano Purple
  Fruit cracking-suppression ratio: 97%
[6]; Riesling
  Fruit cracking-suppression ratio: 98%
[7]; 7 days
  increase of amount of transpiration in comparison with untreated: approximately 25%
[7]; 7 days, decrease in mass assumed to be transpiration
  water lost per 100 g of grape: approximately 25 ml
[7]; Feb. 8
  mass of fruit per 100 g on date of application, 1 day later: 96.2 g
[7]; Feb. 9
  mass of fruit per 100 g on date of application, 2 days later: 92.1 g
[7]; Feb. 10
  mass of fruit per 100 g on date of application, 3 days later: 88.6 g
[7]; Feb. 14
  mass of fruit per 100 g on date of application, 7 days later: 74.9 g
[7]; assuming 15% on date of application
  sugar content 7 days later (calculated): 20.0%
[8]; 5 g/L or 10 g/L
  acidity compared with untreated: kept equal to or slightly higher than that of the untreated group
[8]; 5 g/L
  sugar content in fruit compared with untreated: greater increase in sugar content than the untreated fruit of grape
[8]; 10 g/L
  sugar content in fruit compared with untreated: greater increase in sugar content than the untreated fruit of grape
